Experimental data taken from article PMC12848076, “Identification of two odorant receptors tuned to alarm pheromone compounds in the honey bee Apis mellifera” (Communications Biology, 2025).
Marks after values point to notes of the source that are not given here.

Columns and labels:
Assay type in all cases: cell-based
AmelOR109 [1] = target: T1, AmelOR109 (Apis mellifera, UniProt A0A7M6UWX9); assay: single sensillum recording, ab3A OSN, dose-response; settings: agonist; estimated airborne amount in stimulus, not a concentration; vs mineral oil; full curve only in Figure 5B
T1 construct: gene Or109; full-length ORF, codon-optimized, pUAST.attB at 86F8; expressed in ab3A OSNs of D. melanogaster lacking OR22a/OR22b (empty neuron); endogenous Drosophila Orco as co-receptor; with Odorant receptor coreceptor
T1 sequence (A0A7M6UWX9 1-390): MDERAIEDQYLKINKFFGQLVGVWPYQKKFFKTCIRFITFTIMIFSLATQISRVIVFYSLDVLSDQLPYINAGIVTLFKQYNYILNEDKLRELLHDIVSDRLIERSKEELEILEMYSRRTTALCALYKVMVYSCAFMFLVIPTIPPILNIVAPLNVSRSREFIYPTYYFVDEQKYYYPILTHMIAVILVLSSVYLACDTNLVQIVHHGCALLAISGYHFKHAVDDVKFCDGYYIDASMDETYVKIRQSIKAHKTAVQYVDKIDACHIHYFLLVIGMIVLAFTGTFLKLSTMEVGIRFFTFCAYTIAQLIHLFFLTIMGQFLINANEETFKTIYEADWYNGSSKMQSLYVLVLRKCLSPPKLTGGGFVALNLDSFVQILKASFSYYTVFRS
T1 sequence (Q9VNB5 1-486 partner): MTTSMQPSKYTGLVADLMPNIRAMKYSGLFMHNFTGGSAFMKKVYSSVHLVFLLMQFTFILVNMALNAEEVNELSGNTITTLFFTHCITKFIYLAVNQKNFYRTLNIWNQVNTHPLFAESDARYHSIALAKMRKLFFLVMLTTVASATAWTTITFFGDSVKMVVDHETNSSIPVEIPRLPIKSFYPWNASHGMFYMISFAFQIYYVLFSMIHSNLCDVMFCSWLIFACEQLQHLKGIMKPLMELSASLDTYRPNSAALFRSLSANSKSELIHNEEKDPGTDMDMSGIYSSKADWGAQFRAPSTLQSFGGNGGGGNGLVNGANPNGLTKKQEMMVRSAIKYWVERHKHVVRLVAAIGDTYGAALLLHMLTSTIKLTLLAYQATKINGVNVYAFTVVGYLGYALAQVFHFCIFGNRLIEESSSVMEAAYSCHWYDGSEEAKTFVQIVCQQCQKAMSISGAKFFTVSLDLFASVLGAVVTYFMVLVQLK

AmelOR109 [2] = target: T1, AmelOR109; assay: single sensillum recording, ab3A OSN; settings: agonist; 1000 µg on filter paper; vs mineral oil
AmelOR109 [3] = target: T1, AmelOR109; assay: transcuticular calcium imaging (GCaMP6s), ab3A OSN; settings: agonist; 1000 µg on filter paper; vs mineral oil

Row | dose of statistical significance (AmelOR109 [1]) | Compound | other results
1 | 2700 pmol | CC(=O)OCCC(C)C [isopentyl acetate] | 
2 | 15000 pmol | CCCCCCCCOC(C)=O [octyl acetate] | 
3 | 47000 pmol | CCCC(=O)OCC [ethyl butyrate] | 

Second part, the compound before the results:

Row | Compound | dose of statistical significance (AmelOR109 [1]) | other results
4 | CCC(C)=O [2-butanone] |  | spikes per second (AmelOR109 [2]): AmelOR109 was activated by multiple compounds in the panel, including 2-butanone
5 | CC(=O)OCc1ccccc1 [benzyl acetate] | 390 pmol | 
6 | CC(C)=CCC/C(C)=C/C(=O)O [geranic acid] |  | ΔF/F0 (AmelOR109 [3]): two compounds from the aggregation pheromone were strongly active: geranic acid
